In patent US9745597B2, “Compositions and methods for controlling fungal and bacterial diseases in plants” (priority 2014, dated 2017):
Counter-ions that a name gives are not always drawn.

How the values were obtained:
Alternaria solani [1] = assay: In vivo preventive test on Alternaria (tomatoes) (Example 11); details: rate 0.05%; 3 days after inoculation
Phakopsora pachyrhizi = assay: In vivo preventive test on Phakopsora (soybeans) (Example 12); details: rate 0.05%; 7 days after inoculation
Uromyces appendiculatus = assay: In vivo preventive test on Uromyces (beans) (Example 13); details: rate 0.05%; 10 days after inoculation
Venturia inaequalis [2] = assay: In vivo preventive test on Venturia (apples), equilibrated mixtures (Example 17); details: 10 days after inoculation
Alternaria solani [3] = assay: In vivo preventive test on Alternaria (tomatoes), equilibrated mixtures (Example 18); details: 3 days after inoculation
Botrytis cinerea [4] = assay: In vivo preventive test on Botrytis (beans) (Example 19); details: lesion size 3 days after inoculation
Erwinia amylovora = assay: In vivo control of Erwinia amylovora on apple blossoms (Example 30); details: concentration 0.025 % applied to blossoms; after 6-7 days
Phytophthora infestans [5] = format: in vivo; details: for fungicidal activity against Tomato Late Blight: 0.25, 0.50 and 1.00 weight %, FIG. 4; for Percent Control of Tomato Late Blight: 1.0 weight % in 50% ethanol
Botrytis cinerea [6] = assay: In vivo preventive test on Botrytis (beans) (Example 14); details: rate 0.2%; lesion size 3 days after inoculation
Sphaerotheca fuliginea [7] = assay: In vivo preventive test on Sphaerotheca (cucumbers), equilibrated mixtures (Example 16); details: rate 0.015%; 7 days after inoculation
Sphaerotheca fuliginea [8] = assay: In vivo preventive test on Sphaerotheca (cucumbers) (Example 9); details: rate 0.05%; 7 days after inoculation
Description: […] (Bacillus subtilis QST713 fermentation product) and the adjuvants […]-77 (polyalkyleneoxide modified heptamethyltrisiloxane), […]® (synthetic latex), NIMBUS® (paraffin mineral oil), […] (rapeseed oil methyl ester; castor oil ethoxylated) or MERO® (rapeseed oil methyl ester) were diluted in water to the desired concentrations and applied separately and in combination to young cucumber plants. After the spray coating had dried on, the plants were inoculated with an aqueous spore suspension of Sphaerotheca fuliginea. […] (Bacillus subtilis QST713 fermentation product) in combination with […]-77 (polyalkyleneoxide modified heptamethyltrisiloxane), […]® (synthetic latex), NIMBUS® (paraffin mineral oil), […] (rapeseed oil methyl ester; castor oil ethoxylated) or MERO® (rapeseed oil methyl ester) is greater than the calculated activity, i.e., a synergistic effect is present.

Venturia inaequalis [9] = assay: In vivo preventive test on Venturia (apples) (Example 10); details: rate 0.05%; 10 days after inoculation
Phytophthora infestans [10] = format: in vivo; details: rates between 0.0625 and 2.0 weight %; FIG. 2A, FIG. 3
Botrytis cinerea [11] = format: in vivo; details: rates between 0.0625 and 1.0 weight %; FIG. 2B

For `CCCCC(CC)COC(=O)CC(C(=O)OCC(CC)CCCC)S(=O)(=O)[O-].[Na+]` (stereo not drawn) [GEROPON ® DOS-PG], the “Efficacy in % Found” value (Alternaria solani [1]) was 35%, the “Efficacy in % Found” value (Phakopsora pachyrhizi) was 0% and the “Efficacy in % Found” value (Uromyces appendiculatus) was 0%. For the same compound, the “Efficacy in % Found” value (Venturia inaequalis [2]; rate 0.03%) was 38%, the “Efficacy in % Found” value (Venturia inaequalis [2]; rate 0.06%) was 15% and the “Efficacy in % Found” value (Venturia inaequalis [2]; rate 0.12%) was 28%.

For `CCCCCCCCCCCCOS(=O)(=O)[O-].[Na+]` [LOXANOL ® K12P, sodium dodecyl sulfate], the “Efficacy in % Found” value (Venturia inaequalis [2]; rate 0.03%) was 11%, the “Efficacy in % Found” value (Venturia inaequalis [2]; rate 0.06%) was 41% and the “Efficacy in % Found” value (Venturia inaequalis [2]; rate 0.12%) was 73%. The “Efficacy in % Found” value (Alternaria solani [3]; rate 0.015%) was 8%, the “Efficacy in % Found” value (Alternaria solani [3]; rate 0.03%) was 0% and the “Efficacy in % Found” value (Alternaria solani [3]; rate 0.06%) was 23%. The “Efficacy in % Found” value (Alternaria solani [3]; rate 0.12%) was 30% and the “Efficacy in % Found” value (Botrytis cinerea [4]; rate 0.12%) was 0%.

`[H]/N=C(/N)N[C@H]1[C@H](O)[C@@H](O)[C@H](O[C@@H]2O[C@@H](C)[C@](O)(C=O)[C@H]2O[C@@H]2O[C@@H](CO)[C@H](O)[C@@H](O)[C@@H]2NC)[C@@H](N/C(N)=N\[H])[C@@H]1O` [Streptomycin sulfate] was tested, and the Efficacy in % (Erwinia amylovora) was 89%.

For `CCCCCCCCCCO[C@@H]1O[C@H](CO)[C@@H](O)[C@H](O)[C@H]1O` [n-decyl-B-D-glucoside], the “fungicidal activity against Tomato Late Blight” value (shortened to “fungicidal activity”) (Phytophthora infestans [5]) was “fungicidal activity was observed” and the “Percent Control of Tomato Late Blight” value (Phytophthora infestans [5]) was 97%.

In the case of `CCCCCCCCCCCCO[C@@H]1O[C@H](CO)[C@@H](O)[C@H](O)[C@H]1O` [n-dodecyl-B-D-glucoside], the “fungicidal activity” value (Phytophthora infestans [5]) was “fungicidal activity was observed” and the “Percent Control of Tomato Late Blight” value (Phytophthora infestans [5]) was 96%.

With `CCCCCCCCCO[C@@H]1O[C@H](CO)[C@@H](O)[C@H](O)[C@H]1O` [n-nonyl-B-D-glucoside] the “fungicidal activity” value (Phytophthora infestans [5]) was “fungicidal activity was observed” and the “Percent Control of Tomato Late Blight” value (Phytophthora infestans [5]) was 77%.

For “C8-10 alkyl polyglycoside [AGNIQUE ® PG8107G]”, the “Efficacy in % Found” value (Botrytis cinerea [6]) was 0%.

With “C12-C14 lauryl dimethyl betaine [GENAGEN ® KB]” the “Efficacy in % Found” value (Venturia inaequalis [2]; rate 0.015%) was 15%, the “Efficacy in % Found” value (Botrytis cinerea [4]; rate 0.06%) was 18% and the “Efficacy in % Found” value (Botrytis cinerea [4]; rate 0.12%) was 39%.

“alkyl polyethylene glycol ether phosphoric acid mono/diester [HORDAPHOS ® 1306]” was tested, and the “Efficacy in % Found” value (Sphaerotheca fuliginea [7]) was 0%, the “Efficacy in % Found” value (Venturia inaequalis [2]; rate 0.06%) was 19% and the “Efficacy in % Found” value (Alternaria solani [3]; rate 0.015%) was 30%. The “Efficacy in % Found” value (Alternaria solani [3]; rate 0.03%) was 32%, the “Efficacy in % Found” value (Botrytis cinerea [4]; rate 0.12%) was 0% and the “Efficacy in % Found” value (Botrytis cinerea [4]; rate 0.25%) was 14%.

In the case of “cocoamidopropyl betaine (C8-C18) [GENAGEN ® CAB 818]”, the “Efficacy in % Found” value (Venturia inaequalis [2]; rate 0.015%) was 4%, the “Efficacy in % Found” value (Venturia inaequalis [2]; rate 0.03%) was 68% and the “Efficacy in % Found” value (Venturia inaequalis [2]; rate 0.06%) was 56%. For the same compound, the “Efficacy in % Found” value (Botrytis cinerea [4]; rate 0.06%) was 29% and the “Efficacy in % Found” value (Botrytis cinerea [4]; rate 0.12%) was 32%.

With octyl glucose neopentyl glycol the “fungicidal activity” value (Phytophthora infestans [5]) was “fungicidal activity was observed”.

With “polyalkyleneoxide modified heptamethyltrisiloxane [SILWET ® L-77]” the “Efficacy in % Found” value (Sphaerotheca fuliginea [8]) was 0%, the “Efficacy in % Found” value (Venturia inaequalis [9]) was 0% and the “Efficacy in % Found” value (Alternaria solani [1]) was 16%. The “Efficacy in % Found” value (Phakopsora pachyrhizi) was 0% and the “Efficacy in % Found” value (Uromyces appendiculatus) was 0%.

With sorbitan monolaurate [SPAN ® 20] the “control of Tomato Late Blight” value (Phytophthora infestans [10]) was “the highest level of control was observed at 1.0 and 2.0 weight %”, the “control of Pepper Grey Mould” value (Botrytis cinerea [11]) was “increasing control of the plant pathogen was observed as higher rates were applied” and the “Percent Control of Tomato Late Blight” value (Phytophthora infestans [5]) was 75%.

With sorbitan oleate [SPAN ® 80] the “Percent Control of Tomato Late Blight” value (Phytophthora infestans [5]) was 50%.

sorbitan trioleate [SPAN ® 85] was tested, and the “Percent Control of Tomato Late Blight” value (Phytophthora infestans [5]) was 0%.

In the case of sucrose monodecanoate, the “Percent Control of Tomato Late Blight” value (Phytophthora infestans [5]) was 25%.
